For 19 molecules, EC50 results are on record in patent publication US20200131142A1, “FARNESOID X RECEPTOR AGONISTS AND USES THEREOF” (Metacrine, Inc., priority 2017, published 2020).

The assay addresses T1, hFXR (Homo sapiens, UniProt Q96RI1).
T1 construct: expressed in transfected cells; host or cells: CV-1 cells
T1 sequence (Q96RI1 1-486): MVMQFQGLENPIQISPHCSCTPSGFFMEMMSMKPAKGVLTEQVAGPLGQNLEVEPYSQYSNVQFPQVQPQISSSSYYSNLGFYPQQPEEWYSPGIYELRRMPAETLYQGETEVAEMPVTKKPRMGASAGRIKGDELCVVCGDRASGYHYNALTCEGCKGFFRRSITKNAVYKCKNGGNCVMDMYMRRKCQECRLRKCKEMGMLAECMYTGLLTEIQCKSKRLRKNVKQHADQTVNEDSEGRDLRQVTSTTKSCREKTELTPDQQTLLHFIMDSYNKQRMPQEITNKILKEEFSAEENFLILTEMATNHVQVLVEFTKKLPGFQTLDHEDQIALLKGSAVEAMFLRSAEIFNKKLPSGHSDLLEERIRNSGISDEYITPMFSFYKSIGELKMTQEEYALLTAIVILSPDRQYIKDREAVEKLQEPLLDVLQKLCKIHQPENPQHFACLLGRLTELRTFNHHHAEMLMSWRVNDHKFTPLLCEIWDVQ
T1 sequence (P19793 1-462 partner): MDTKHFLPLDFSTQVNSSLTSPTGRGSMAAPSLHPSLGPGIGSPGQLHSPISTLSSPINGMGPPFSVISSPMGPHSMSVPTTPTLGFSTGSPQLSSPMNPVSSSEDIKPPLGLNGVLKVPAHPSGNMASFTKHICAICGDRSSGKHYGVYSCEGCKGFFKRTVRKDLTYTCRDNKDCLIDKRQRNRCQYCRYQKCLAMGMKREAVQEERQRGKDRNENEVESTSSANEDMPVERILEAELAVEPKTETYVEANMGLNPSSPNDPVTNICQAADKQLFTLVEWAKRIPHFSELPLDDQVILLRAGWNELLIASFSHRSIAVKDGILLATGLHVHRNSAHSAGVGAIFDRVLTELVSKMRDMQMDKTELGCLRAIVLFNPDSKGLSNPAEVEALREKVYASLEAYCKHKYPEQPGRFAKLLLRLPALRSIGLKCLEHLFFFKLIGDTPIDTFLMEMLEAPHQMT
The experiment in a line: In Vitro FXR Assay (TK): hFXR/hRXR TK-ECRE-luc reporter in transfected CV-1 cells. It counts as cell-based. The note with it: 18 hrs incubation, luminescence, compounds with maximum efficacy <25% of the Fexarmine control classified as '+'. As to the method: Example B-1: In Vitro FXR Assay (TK)
CV-1 cells were seeded at a density of 2,000,000 cells in a T175 flask with DMEM+10% charcoal double-stripped FBS and incubated at 37° C. in 5% CO2 for 18 h (O/N).
After 18 h of incubation, the medium in the T175 flask was changed with fresh DMEM+10% charcoal super-stripped serum. In a polypropylene tube, 2500 μL OptiMEM (Life Technologies, Cat #31985-062) was combined with expression plasmids for hFXR, hRXR, TK-ECRE-luc and pCMX-YFP. The tube was then briefly vortexed and incubated at room temperature for 5 minutes. Transfection reagent (X-tremeGENE HP from Roche, Cat #06 366 236 001) was added to the OptiMEM/plasmid mixture vortexed and incubated at room temperature for 20 minutes. Following incubation, the transfection reagent/DNA mixture complex was added to cells in the T175 flask and the cells were incubated at 37° C. in 5% CO2 for 18 h (O/N).
Compounds were serially diluted in DMSO and added to transfected CV-1 cells. The cells were then incubated for 18 hrs. The next day cells were lysed and examined for luminescence.

Structures are written as SMILES. Where only a bound is given, the exact number is not on record here.

In the case of `COc1ccc([C@H]2CC[C@H](CN(c3cccc(-c4cnc(C)s4)c3)C(=O)[C@H]3CC[C@H](O)CC3)CC2)cc1C` [Compound 6.03, trans-4-Hydroxy-N-((trans-4-(4-methoxy-3-methylphenyl)cyclohexyl)methyl)-N-(3-(2-methylthiazol-5-yl)phenyl)cyclohexanecarboxamide], the concentration for a half-maximal effect (EC50) (as a rule, the concentration needed to bring the measured effect to its halfway point) was not above 250 nM.

`COc1cnc([C@H]2CC[C@H](CN(c3cccc(-c4cnc(C5CC5)s4)c3)C(=O)[C@H]3CC[C@H](O)CC3)CC2)cc1C` [Compound 9.24, trans-N-(3-(2-Cyclopropylthiazol-5-yl)phenyl)-4-hydroxy-N-((trans-4-(5-methoxy-4-methylpyridin-2-yl)cyclohexyl)methyl)cyclohexanecarboxamide] yielded an EC50 of 250 to 1000 nM.

Consider `COc1ccc([C@H]2CC[C@H](CN(c3cccc(-c4nc(C)cs4)c3)C(=O)[C@H]3CC[C@H](O)CC3)CC2)cc1C` [Compound 7.01, trans-4-Hydroxy-N-((trans-4-(4-methoxy-3-methylphenyl)cyclohexyl)methyl)-N-(3-(4-methylthiazol-2-yl)phenyl)cyclohexanecarboxamide], for which the EC50 was not below 1000 nM.

Turning to `COc1ccc([C@H]2CC[C@H](CN(c3cccc(/C=C/c4nccs4)c3)C(=O)[C@H]3CC[C@H](O)CC3)CC2)cc1C` [Compound 6.06, trasn-4-Hydroxy-N-((trans-4-(4-methoxy-3-methylphenyl)cyclohexyl)methyl)-N-(3-((E)-2-(thiazol-2-yl)vinyl)phenyl)cyclohexanecarboxamide], the EC50 was not above 250 nM.

The molecule `COc1ncc(-c2cccc(N(C[C@H]3CC[C@H](c4ccc(OC)c(C)c4)CC3)C(=O)[C@H]3CC[C@H](C)CC3)c2)s1` [Compound 9.31, trans-N-((trans-4-(4-Methoxy-3-methylphenyl)cyclohexyl)methyl)-N-(3-(2-methoxythiazol-5-yl)phenyl)-4-methylcyclohexanecarboxamide] gave a concentration for a half-maximal effect (EC50) not above 250 nM.

As for `COc1ccc([C@H]2CC[C@H](CN(c3cccc(-c4cnc(N(C)C)s4)c3)C(=O)[C@H]3CC[C@H](O)CC3)CC2)cc1C` [Compound 7.13, trans-N-(3-(2-(Dimethylamino)thiazol-5-yl)phenyl)-4-hydroxy-N-((trans-4-(4-methoxy-3-methylphenyl)cyclohexyl)methyl) cyclohexanecarboxamide], the EC50 was not above 250 nM.

The molecule `Cn1ccc2cc([C@H]3CC[C@H](CN(c4cccc(-c5cnc(C6CC6)s5)c4)C(=O)[C@H]4CC[C@H](O)CC4)CC3)ncc21` [Compound 9.17, trans-N-(3-(2-Cyclopropylthiazol-5-yl)phenyl)-4-hydroyx-N-((trans-4-(1-methyl-1H-pyrrolo[2,3-c]pyridin-5-yl)cyclohexyl)methyl)cyclohexanecarboxamide] yielded an EC50 of 250 to 1000 nM.

The molecule `COc1ccc([C@H]2CC[C@H](CN(c3cccc(-c4cnc(-c5ccccc5)s4)c3)C(=O)[C@H]3CC[C@H](O)CC3)CC2)cc1C` [Compound 7.10, trans-4-Hydroxy-N-((trans-4-(4-methoxy-3-methylphenyl)cyclohexyl)methyl)-N-(3-(2-phenylthiazol-5-yl)phenyl)cyclohexanecarboxamide] came in with an EC50 not above 250 nM.

`COc1ccc([C@H]2CC[C@H](CN(c3cccc(C#Cc4cscn4)c3)C(=O)[C@H]3CC[C@H](O)CC3)CC2)cc1C` [Compound 8, trans-4-Hydroxy-N-((trans-4-(4-methoxy-3-methylphenyl)cyclohexyl)methyl)-N-(3-(thiazol-4-ylethynyl)phenyl)cyclohexanecarboxamide] showed an EC50 not above 250 nM.

In the case of `COc1ccc([C@H]2CC[C@H](CN(c3cccc(-c4cnc(C5CC5)s4)c3)C(=O)[C@H]3CC[C@H](O)CC3)CC2)cc1C` [Compound 7, trans-N-(3-(2-Cyclopropylthiazol-5-yl)phenyl)-4-hydroxy-N-((trans-4-(4-methoxy-3-methylphenyl)cyclohexyl)methyl) cyclohexanecarboxamide], the EC50 is not above 250 nM.

`COc1ncc(-c2cccc(N(C[C@H]3CC[C@H](c4ccc(OC)c(C)c4)CC3)C(=O)C3CCCCC3)c2)s1` [Compound 1.01, N-((trans-4-(4-Methoxy-3-methylphenyl)cyclohexyl)methyl)-N-(3-(2-methoxythiazol-5-yl)phenyl)cyclohexanecarboxamide] yielded an EC50 not above 250 nM.

For `COc1ccc([C@H]2CC[C@H](CN(c3cc(-c4cnc(C5CC5)s4)ccn3)C(=O)[C@H]3CC[C@H](O)CC3)CC2)nc1C` [Compound 9.20, trans-N-(4-(2-Cyclopropylthiazol-5-yl)pyridin-2-yl)-4-hydroxy-N-((trans-4-(5-methoxy-6-methylpyridin-2-yl)cyclohexyl)methyl)cyclohexanecarboxamide], the EC50 is not above 250 nM.

In turn, `O=C([C@H]1CC[C@H](O)CC1)N(C[C@H]1CC[C@H](c2ccc3c(c2)OCO3)CC1)c1cccc(-c2cnc(C3CC3)s2)c1` [Compound 9.25, trans-N-((trans-4-(Benzo[d][1,3]dioxol-5-yl)cyclohexyl)methyl)-N-(3-(2-cyclopropylthiazol-5-yl)phenyl)-4-hydroxycyclohexanecarboxamide] returned an EC50 not above 250 nM.

Molecule `COc1ccc([C@H]2CC[C@H](CN(c3cccc(-c4cnc(CO)s4)c3)C(=O)[C@H]3CC[C@H](O)CC3)CC2)cc1C` [Compound 7.19, trans-4-Hydroxy-N-(3-(2-(hydroxymethyl)thiazol-5-yl)phenyl)-N-((trans-4-(4-methoxy-3-methylphenyl)cyclohexyl)methyl) cyclohexanecarboxamide] yielded an EC50 of 250 to 1000 nM.

The molecule `COc1ncc(-c2cccc(N(CC3CCC(c4ccc(OC)c(C)c4)CC3C)C(=O)[C@H]3CC[C@H](O)CC3)c2)s1` (stereo partly drawn) [Compound 12, trans-4-Hydroxy-N-((4-(4-methoxy-3-methylphenyl)-2-methylcyclohexyl)methyl)-N-(3-(2-methoxythiazol-5-yl)phenyl)cyclohexanecarboxamide] showed an EC50 not above 250 nM.

`COc1ccc([C@H]2CC[C@H](CN(c3cccc(-c4cnc(C(N)=O)s4)c3)C(=O)[C@H]3CC[C@H](O)CC3)CC2)cc1C` [Compound 7.25, 5-(3-(trans-4-Hydroxy-N-((trans-4-(4-methoxy-3-methylphenyl)cyclohexyl)methyl)cyclohexanecarboxamido)phenyl)thiazole-2-carboxamide]: the EC50 was 250 to 1000 nM.

In turn, `COc1ccc(C23CCC(CN(c4cc(-c5cnc(C6CC6)s5)ccn4)C(=O)[C@H]4CC[C@H](O)CC4)(CC2)CC3)cc1C` [Compound 6.05, trans-N-(4-(2-Cyclopropylthiazol-5-yl)pyridin-2-yl)-4-hydroxy-N-((4-(4-methoxy-3-methylphenyl)bicyclo[2.2.2]octan-1-yl)methyl)cyclohexanecarboxamide] displayed an EC50 not above 250 nM.

For `COc1ccc([C@H]2CC[C@H](CN(c3cccc(CCc4nccs4)c3)C(=O)[C@H]3CC[C@H](O)CC3)CC2)cc1C` [Compound 6.07, trans-4-Hydroxy-N-((trans-4-(4-methoxy-3-methylphenyl)cyclohexyl)methyl)-N-(3-(2-(thiazol-2-yl)ethyl)phenyl)cyclohexanecarboxamide], the EC50 is not above 250 nM.

Regarding `COc1ncc(-c2cccc(N(C[C@H]3CC[C@H](c4ccc(OC)c(C)c4)CC3)C(=O)C3CCC(F)(F)CC3)c2)s1` [Compound 9.32, 4,4-Difluoro-N-((trans-4-(4-methoxy-3-methylphenyl)cyclohexyl)methyl)-N-(3-(2-methoxythiazol-5-yl)phenyl)cyclohexanecarboxamide], the EC50 is not above 250 nM.
